Test [1] concerns the target T1, CD73 (Homo sapiens, UniProt P21589).
T1 sequence (P21589 27-574): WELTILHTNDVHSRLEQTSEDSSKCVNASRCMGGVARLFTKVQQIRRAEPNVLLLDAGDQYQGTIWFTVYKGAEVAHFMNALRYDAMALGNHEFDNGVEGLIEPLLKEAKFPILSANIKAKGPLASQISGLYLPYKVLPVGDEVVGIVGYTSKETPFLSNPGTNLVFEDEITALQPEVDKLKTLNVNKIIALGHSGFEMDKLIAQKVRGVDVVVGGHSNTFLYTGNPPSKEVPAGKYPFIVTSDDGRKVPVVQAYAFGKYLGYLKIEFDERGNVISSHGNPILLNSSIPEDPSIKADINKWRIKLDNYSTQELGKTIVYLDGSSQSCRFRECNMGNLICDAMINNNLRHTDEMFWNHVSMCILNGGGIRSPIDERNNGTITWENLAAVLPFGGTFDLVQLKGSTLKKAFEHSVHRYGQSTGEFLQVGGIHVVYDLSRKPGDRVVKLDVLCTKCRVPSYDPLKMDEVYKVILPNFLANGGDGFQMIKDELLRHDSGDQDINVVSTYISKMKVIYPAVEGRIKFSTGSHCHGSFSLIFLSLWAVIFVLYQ
The experiment in a line: CD73 Cellular Assay. It counts as cell-based. Also on record: 40 μL of MDA-MB-231 cells (ATCC, HTB-26, breast cancer); host or cells: MDA-MB-231. The following applies: MDA-MB-231 cells; 200 μM AMP working solution; 45 min at 37° C.; malachite readout; read-out: Cellular IC50 against CD73. Here is the method: Compound serial dilution (1:3) was prepared with Echo 555 liquid handler (Labcyte) into the corresponding wells of a 384-well plate. 40 μL of MDA-MB-231 cells (ATCC, HTB-26, breast cancer, final concentration at 20,000 cells/mL) suspended in assay buffer (20 mM HEPES pH 7.4, 137 mM NaCl, 5.4 mM KCl, 1.3 mM CaCl2, 4.2 mM NaHCO3, 1 mg/mL glucose) were added into the corresponding wells of the plate. After incubating with compounds for 30 minutes, 40 μL of AMP working solution (200 μM AMP in assay buffer) was added into each well in the assay plate. The assay plate was then incubated in a 5% CO2 incubator (Thermo Fisher Scientific) at 37° C. for 45 min. After the reaction was completed, 50 μL of the supernatants was collected and transferred into a new 384 well plate. 10 μL of Malachite A was added to each well in the assay plate and incubated for 10 minutes. 10 μL of Malachite B was then added to each corresponding well of the plate and incubated for 30 minutes. Finally the absorbance value was read on the Envision plate reader at […]. Calculation percentage inhibition by using equation {% inhibition=100×[1−(X−MIN)/(MAX−MIN)]} where X equals to the well signal, Max equals signal of neutral control and MIN equals signal of inhibitor control.

Test [2] deals with T1, CD73. The test can be described thus: Human CD73 Biochemical Assay. Particulars: 0.05 nM recombinant CD73; AMP 5.56 μM final; 10 min at room temperature; LC/MS adenosine readout; read-out: Enzymatic IC50 against human CD73. Here is the method: The purpose of this assay is to identify and characterize inhibitors of human CD73 enzymatic activity. Compound serial dilution (1:3) was prepared with Echo 555 liquid handler (Labcyte) into the corresponding wells of a 384-well plate. 10 μL of enzyme working solution (containing 0.05 nM recombinant CD73 protein, 10 mM Tris pH 7.5, 100 mM NaCl, 0.01% BSA, 0.2 mM Octyl glucoside and 1 mM NaH2PO4) was added to the assay plate and incubated with compounds for 15 minutes at room temperature. After adding 15 μL of AMP working solution (Containing 10 mM Tris pH 7.5, 100 mM NaCl, 0.01% BSA, 0.2 mM Octyl glucoside, with 5.56 μM of AMP final concentration) and incubate for 10 min at room temperature. Stop the reaction by adding 75 μL of stop solution (5% TCA in H2O containing 250 nM 13C5-adenosine) to each well for 10 min incubation. After centrifugation, 75 μL of the mixture was transferred to a new 384-well plate for LC/MS analysis.
Samples from the 384-well plates, were loaded onto an autosampler deck, then injected with ADDA-LC-MS/MS. The aqueous mobile phase is 0.1% formic acid in water. The organic mobile phase is 0.1% formic acid in acetonitrile. Flow rate is maintained at 0.8 mL/minute using Shimadzu pumps. The column is ACE 5 Phenyl, 50×2.1 mm. The analysis was performed on a SCIEX triple quadrupole mass spectrometer operating in positive ion mode. The effluent from the HPLC column was directly introduced into the electrospray ionization (ESI). Multiple reaction monitoring (MRM) is used to determine analyte and internal standard (IS) responses. The MRM for adenosine is 268.1/136.1, for 13C5-Adenosine (IS) is 273.2/136.2. The data is calculated using the peak area ratio (PAR) semi-quantitative method.

Data on 13 compounds can be found in patent US20260317332A1, “BICYCLIC HETEROCYCLE COMPOUNDS FOR THE TREATMENT OF CANCER” (Hoffmann-La Roche Inc., priority 2023, published 2026).

Take `Cn1nc(O[C@H](c2ccc(F)c(OCC(F)(F)F)c2)C(F)F)c2cc(-c3c[nH]c(=O)[nH]c3=O)nnc21` [Example 3, 5-[3-[(1R)-2,2-difluoro-1-[4-fluoro-3-(2,2,2-trifluoroethoxy)phenyl]ethoxy]-1-methyl-pyrazolo[3,4-c]pyridazin-5-yl]-1H-pyrimidine-2,4-dione]: the IC50 (in general, the concentration that gives 50% inhibition) on CD73 [1] came out at 0.91 nM; on CD73 [2], 0.17 nM.

For `Cn1nc(O[C@H](c2cc(OCC(F)F)ccn2)C(F)F)c2cc(-c3c[nH]c(=O)[nH]c3=O)nnc21` [Example 7, 5-[3-[(1R)-1-[4-(2,2-difluoroethoxy)-2-pyridyl]-2,2-difluoro-ethoxy]-1-methyl-pyrazolo[3,4-c]pyridazin-5-yl]-1H-pyrimidine-2,4-dione], the IC50 is 0.59 nM on CD73 [1] and 0.08 nM at CD73 [2].

In the case of `Cn1nc(O[C@H](c2cc(OCC(F)(F)F)c(F)cn2)C(F)F)c2cc(-c3c[nH]c(=O)[nH]c3=O)nnc21` [Example 9A, 5-[3-[(1R)-2,2-difluoro-1-[5-fluoro-4-(2,2,2-trifluoroethoxy)-2-pyridyl]ethoxy]-1-methyl-pyrazolo[3,4-c]pyridazin-5-yl]-1H-pyrimidine-2,4-dione], the IC50 at CD73 [1] worked out at 0.73 nM; on CD73 [2] it was 0.11 nM.

In the case of `Cn1nc(O[C@H](c2ccnc(OCC(F)F)c2)C(F)F)c2cc(-c3n[nH]c(=O)[nH]c3=O)nnc21` [Example 13A, 6-[3-[(1R)-1-[2-(2,2-difluoroethoxy)-4-pyridyl]-2,2-difluoro-ethoxy]-1-methyl-pyrazolo[3,4-c]pyridazin-5-yl]-2H-1,2,4-triazine-3,5-dione], the IC50 on CD73 [1] came out at 0.97 nM; on CD73 [2] it was 0.02 nM.

Turning to `COCCOc1cc([C@@H](Oc2nn(C)c3nnc(-c4c[nH]c(=O)[nH]c4=O)cc23)C(F)F)ccc1F` [Example 15, 5-[3-[(1R)-2,2-difluoro-1-[4-fluoro-3-(2-methoxyethoxy)phenyl]ethoxy]-1-methyl-pyrazolo[3,4-c]pyridazin-5-yl]-1H-pyrimidine-2,4-dione], the IC50 at CD73 [1] came to 0.88 nM; on CD73 [2], 0.07 nM.

`Cn1nc(O[C@H](c2ccnc(OCC(C)(F)F)c2)C(F)F)c2cc(-c3c[nH]c(=O)[nH]c3=O)nnc21` [Example 16, 5-[3-[(1R)-1-[2-(2,2-difluoropropoxy)-4-pyridyl]-2,2-difluoro-ethoxy]-1-methyl-pyrazolo[3,4-c]pyridazin-5-yl]-1H-pyrimidine-2,4-dione]: the results for the IC50 on CD73 [1] and on CD73 [2] were 0.54 nM and 0.04 nM, respectively.

On to `CCOc1ccnc([C@@H](Oc2nn(C)c3nnc(-c4c[nH]c(=O)[nH]c4=O)cc23)C(F)F)c1` [Example 20, 5-[3-[(1R)-1-(4-ethoxy-2-pyridyl)-2,2-difluoro-ethoxy]-1-methyl-pyrazolo[3,4-c]pyridazin-5-yl]-1H-pyrimidine-2,4-dione], for which the IC50 was determined as 0.49 nM at CD73 [1] and 0.06 nM on CD73 [2].

Consider `Cn1nc(O[C@H](c2cc(OCC#N)ccn2)C(F)F)c2cc(-c3c[nH]c(=O)[nH]c3=O)nnc21` [Example 21, 2-[[2-[(1R)-1-[5-(2,4-dioxo-1H-pyrimidin-5-yl)-1-methyl-pyrazolo[3,4-c]pyridazin-3-yl]oxy-2,2-difluoro-ethyl]-4-pyridyl]oxy]acetonitrile], for which the IC50 on CD73 [1] was found to be 0.73 nM; on CD73 [2] it was 0.09 nM.

As for `Cn1nc(O[C@H](c2cc(OCC3(C(F)(F)F)CC3)ccn2)C(F)F)c2cc(-c3c[nH]c(=O)[nH]c3=O)nnc21` [Example 23, 5-[3-[(1R)-2,2-difluoro-1-[4-[[1-(trifluoromethyl)cyclopropyl]methoxy]-2-pyridyl]ethoxy]-1-methyl-pyrazolo[3,4-c]pyridazin-5-yl]-1H-pyrimidine-2,4-dione], the IC50 at CD73 [1] was 0.74 nM; on CD73 [2] it was 0.08 nM.

As for `C[C@@H](Nc1cc([C@@H](Oc2nn(C)c3nnc(-c4c[nH]c(=O)[nH]c4=O)cc23)C(F)F)ccn1)C(F)(F)F` [Example 27, 5-[3-[(1R)-2,2-difluoro-1-[2-[[(1R)-2,2,2-trifluoro-1-methyl-ethyl]amino]-4-pyridyl]ethoxy]-1-methyl-pyrazolo[3,4-c]pyridazin-5-yl]-1H-pyrimidine-2,4-dione], the half-inhibitory concentration (IC50) was 0.48 nM on CD73 [1] and 0.04 nM on CD73 [2].

With `[2H]C([2H])([2H])C([2H])([2H])Oc1cc([C@@H](Oc2nn(C)c3nnc(-c4c[nH]c(=O)[nH]c4=O)cc23)C(F)F)ccn1` [Example 30, 5-[3-[(1R)-2,2-difluoro-1-[2-(1,1,2,2,2-pentadeuterioethoxy)-4-pyridyl]ethoxy]-1-methyl-pyrazolo[3,4-c]pyridazin-5-yl]-1H-pyrimidine-2,4-dione], the IC50 at CD73 [1] turned out to be 0.6 nM; on CD73 [2], 0.05 nM.

`Cn1nc(O[C@H](c2ccnc(N3CCC(F)(F)CC3)c2)C(F)F)c2cc(-c3c[nH]c(=O)[nH]c3=O)nnc21` [Example 31, 5-[3-[(1R)-1-[2-(4,4-difluoro-1-piperidyl)-4-pyridyl]-2,2-difluoro-ethoxy]-1-methyl-pyrazolo[3,4-c]pyridazin-5-yl]-1H-pyrimidine-2,4-dione]: the results for the IC50 on CD73 [1] and at CD73 [2] were 0.55 nM and 0.05 nM, respectively.

For the compound `Cn1nc(O[C@H](c2ccnc(NC3CCC(F)(F)CC3)c2)C(F)F)c2cc(-c3c[nH]c(=O)[nH]c3=O)nnc21` [Example 32, 5-[3-[(1R)-1-[2-[(4,4-difluorocyclohexyl)amino]-4-pyridyl]-2,2-difluoro-ethoxy]-1-methyl-pyrazolo[3,4-c]pyridazin-5-yl]-1H-pyrimidine-2,4-dione], the figures for the IC50 on CD73 [1] and at CD73 [2] were 0.38 nM and 0.05 nM, respectively.
